Laboratory results reported in patent US4299970A, “Oxy-alkylamino carboxylic esters” (Beecham Group Limited, priority 1974, dated 1981).
In brackets after ≈: the same amount, converted by molar mass.

Key:
[1] = tested on: 5-hydroxy-tryptamine-induced bronchoconstriction; experiment: inhibition of 5-hydroxytryptamine-induced bronchoconstriction (Konsett-Rossler preparation); format: in vivo, guinea pig; conditions: Cavia porcellus; intravenous, 2 minutes prior to 5-hydroxytryptamine dose
Description: a. The compounds were examined for their ability to inhibit 5-hydroxy-tryptamine-induced bronchoconstriction in the anaesthetised, artifically respired guinea pig (Konsett-Rossler preparation).
H. Konsett and R. Rossler, (1940), Naunyn-Schneidebergs Arch. Exp. Path. Pharmak., 195, 71.
After preparation of the guinea pig, a dose of 5-hydroxytryptamine producing an adequate response was determined by dosing, i.v., every 6 minutes. This dose was usually 10 μg. After a standard response was obtained, compounds were given intra-venously 2 minutes prior to the next standard dose and dosing of 5-hydroxytryptamine was continued every 6 minutes until the response returned to control values.

[2] = tested on: pentagastrin-stimulated gastric acid secretion; experiment: inhibition of pentagastrin-stimulated gastric acid secretion, anaesthetised perfused rat stomach (Ghosh and Schild preparation); format: in vivo; conditions: intravenous
Excerpt: a. The compounds were examined for their ability to inhibit pentagastrin-stimulated gastric acid secretion in the anaesthetised, perfused rat stomach preparation (Ghosh and Schild preparation).
M. N. Ghosh and H. O. Schild, (1958), Brit. J. Pharmacol, 13, 54.
The compounds were given intravenously.

[3] = tested on: guinea pig platelet aggregation induced by ADP; experiment: inhibition of guinea pig platelet aggregation induced in vitro by ADP; format: cell-based; conditions: Cavia porcellus, ADP 5.45×10^-7 M, platelet rich plasma, 37° C.
Description: a. The compounds were examined for their ability to inhibit guinea pig platelet aggregation induced, in vitro, by 5.45×10^-7 M adenosine diphosphate (ADP).
The method consisted of diluting the compound immediately before use from a 10 mg/ml solution in ethanol to a 1 mg/ml solution with saline and then adding the appropriate volume to 0.5 ml of platelet rich plasma. The mixture was stirred at 37° C. for 1 minute before 25 μl of an ADP solution was added to give a final ADP concentration of 5.45×10^-7 M. The aggregation response was then recorded relative to the control.

arterial blood pressure = experiment: effect on arterial blood pressure in the anaesthetised, normotensive rat; format: in vivo; conditions: intravenous, dose range 0.001 → 1.0 mg/kg
Description: a. The effect of the compounds on arterial blood pressure was determined in the anaesthetised, normotensive rat. The rat preparation was similar to that desribed in "Pharmacological experiments on intact preparations", E. and S. Livingstone, Edinburgh and London, 1970, p. 63.
The active compounds were predominantly depressor agents in the normotensive rat.

[4] = tested on: gerbil colon; contraction to prostaglandin F2α; experiment: prostaglandin antagonist activity on the isolated perfused gerbil colon (contraction to prostaglandin F2α); conditions: Meriones unguiculatus; reduction of contraction to prostaglandin F2α; one minute pre-contact time
Description: (§1) The compounds were tested for prostaglandin-like and for prostaglandin antagonist activity on the isolated perfused gerbil colon preparation (smooth muscle). This has been shown by J. R. Weeks, J. R. Schultz and W. E. Brown, (1968), J. App. Physiol, 25, 783, to have greater precision and sensitivity than other preparations. A 15 mm portion of the descending colon is suspended in an organ bath and perfused with De Jalon's saline at 32° C. Compounds were given in a three minute cycle with a 45 second contact time and a 15 second washout time. Antagonist compounds were given with a one minute pre-contact time.
Antagonist activity was determined by measuring the percentage reduction of the contraction to two standard doses of prostaglandin F2α which gave responses between 20% and 80% of maximum response.

[5] = tested on: human platelet aggregation induced by collagen; experiment: inhibition of human platelet aggregation induced in vitro by collagen; format: cell-based; conditions: 10^-4 M, collagen, platelet rich plasma, 37° C.
Description: b. The compounds were examined for their ability to inhibit human platelet aggregation induced, in vitro, either by adenosine diphosphate (ADP) or collagen. The compounds were added in saline or dimethylformamide to platelet rich plasma at 37° C. to give a final concentration of 10^-4 M. After 3 minutes the platelets were challenged with ADP or collagen. The aggregation response was then recorded relative to the control.

[6] = tested on: femoral artery of the hind limb; experiment: vasodilator activity in femoral artery of the hind limb (vascular resistance); format: in vivo, beagle dog; conditions: dose range of 0.01-1 mg/kg, intra-arterially
Description: (§2) b. The vasodilator activity of the compounds was determined in the femoral artery of the hind limb of the anaesthetised beagle dog. The method used was similar to that described by J. Nakano and J. R. McCurdy, (1967), J. Pharmac. Exp. Ther., 156, 538.
The compounds were administered into the iliac artery and the effects on both flow and pressure in the hind limb were recorded. Changes in vascular resistance (R) were calculated from the following expression: [formula]

[7] = tested on: total peripheral resistance; experiment: total peripheral resistance, intravenous; format: in vivo, beagle dog; conditions: dose range of 0.01-10 mg/kg, intra-venously
Description: as §2
In other experiments the compounds were administered into the left femoral vein and the right femoral arterial pressure and cardiac output were monitored. From these experiments, total peripheral resistance (TPR) was calculated from the expression: [formula]

antifertility activity = antifertility activity in female mice; format: in vivo; conditions: 50-100 mg/kg, s.c.; 5 days pre-coitally and 10 days post-coitally
Description: Antifertility activity was determined by subcutaneous dosing of female mice for 5 days pre-coitally and 10 days post-coitally. Three female mice per group were used and these were mated with males of proven fertility and mating confirmed by examination for copulation plugs.

gerbil colon = experiment: prostaglandin-like activity on the isolated perfused gerbil colon; conditions: De Jalon's saline, 32° C.
Description: as §1
Prostaglandin-like activity was determined using the method of H. O. Schlid, (1942), J. Physiol., 101, 115, which is a standard 4×4 latin square assay. Some of the compounds stimulated the gerbil colon to contract which is a prostaglandin-like effect, and the results are shown in Table 15.

In the case of CCCCCC(C)(O)CCN1C(=O)CC(=O)C1CCCCCCC(=O)OCC (centres unmarked) [Compound 62, 2-(6'-Ethoxycarbonyl-n-hexyl)-1-(3"-hydroxy-3"-methyl-n-octyl)-pyrrolidin-3,5-dione], the ED50 [1] is reported as 0.088 mg/kg, the ED50 [2] is reported as 0.72 mg/kg and the IC50 [3] is reported as 20 µM. For the same compound, the “% Depression at 1 mg/kg” value (arterial blood pressure) was 70%.
For CCCCCCC(O)(CC)CCN1C(=O)CC(=O)C1CCCCCCC(=O)OCC (centres unmarked) [Compound 68, 2-(6'-Ethoxycarbonyl-n-hexyl)-1-(3"-hydroxy-3"-ethyl-n-nonyl)-pyrrolidin-3,5-dione], the IC50 [3] was 4 µM.
Work on CCCCCCC(O)CCN1C(=O)CC(O)C1CCCCCCC(=O)OCC (centres unmarked) [Compound 98] yielded an IC50 [4] of 2.15 µg/mL (≈ 5.38 µM).
CCCCCCC(C)(O)CCN1C(=O)CC(O)C1CCCCCCC(=O)OCC (centres unmarked) [Compound 86] showed an ED50 [1] of 0.505 mg/kg and an IC50 [3] of 55 µM.
With CCCCCCCCN1C(=O)CCC(O)C1CCCCCCC (centres unmarked) [Compound 99, 2-n-Heptyl-3-hydroxy-1-n-octyl-piperidin-6-one] the IC50 [4] was 1.55 µg/mL (≈ 4.76 µM).
In the case of CCCCCCC(O)CCN1C(=O)CCC(=O)C1CCCCCCC(=O)OCC (centres unmarked) [Compound 78], the “% Depression at 1 mg/kg” value (arterial blood pressure) is reported as 30% and the inhibition at 100 µM [5] is reported as 65%.
For CCCCCCCCN1CCCC(O)C1CCCCCCC (centres unmarked) [Compound 112, 2-n-heptyl-3-hydroxy-1-n-octyl-piperidine], the vascular resistance [6] was “decreased vascular resistance”, the “total peripheral resistance (TPR)” value [7] was “decreased total peripheral resistance” and the inhibition at 100 µM [5] was 77%. For the same compound, the antifertility activity (antifertility activity) was “active”.
CCCCCC(CCN1C(=O)CCC(O)C1CCCCCCC(=O)OCC)OCc1ccccc1 (centres unmarked) [Compound 79] gave an IC50 [4] of 0.76 µg/mL (≈ 1.55 µM).
Compound CCCCCC(O)CCN1C(=O)CC(=O)C1CCCCCCC(=O)OCC (centres unmarked) [Compound 75, 2-(6'-ethoxycarbonyl-n-hexyl)-1-(3"-hydroxy-n-octyl)-pyrrolidin-3,5-dione] has an inhibition at 100 µM [5] of 61% and a Concentration/ml. for contractions (gerbil colon) of 0.2 to 0.5 µg/mL.
OCCCCCCCC1C(O)CCCN1CCCOCc1ccccc1 (centres unmarked) [Compound 103] was tested, and the IC50 [4] was 0.35 µg/mL (≈ 0.963 µM).
CCCCCC(O)CCN1C(=O)CC(O)C1CCCCCCC(=O)OCC (centres unmarked) [Compound 76, 2-(6'-ethoxycarbonyl-n-hexyl)-3-hydroxy-1-(3"-hydroxy-n-octyl)-pyrrolidin5-one] showed an IC50 [3] of 147 µM and an inhibition at 100 µM [5] of 79%.
CCCCCC(CCN1C(=O)CC(O)C1CCCCCCC(=O)OCC)OCc1ccccc1 (centres unmarked) [Compound 81] was tested, and the IC50 [4] was 0.17 µg/mL (≈ 0.357 µM).
CCOC(=O)CCCCCCC1C(O)CCC(=O)N1CCCOCc1ccccc1 (centres unmarked) [Compound 80] gave an IC50 [4] of 3.1 µg/mL (≈ 7.39 µM).
